{"source": "ChEMBL document CHEMBL4811304", "about": "“Design, synthesis and biological evaluation of dual mTOR/HDAC6 inhibitors in MDA-MB-231 cells” (Bioorg Med Chem Lett, 2021)", "key": {"[1]": {"target": "T1, Histone deacetylase 1 (Homo sapiens, UniProt Q13547)", "T1 sequence (Q13547 whole entry)": "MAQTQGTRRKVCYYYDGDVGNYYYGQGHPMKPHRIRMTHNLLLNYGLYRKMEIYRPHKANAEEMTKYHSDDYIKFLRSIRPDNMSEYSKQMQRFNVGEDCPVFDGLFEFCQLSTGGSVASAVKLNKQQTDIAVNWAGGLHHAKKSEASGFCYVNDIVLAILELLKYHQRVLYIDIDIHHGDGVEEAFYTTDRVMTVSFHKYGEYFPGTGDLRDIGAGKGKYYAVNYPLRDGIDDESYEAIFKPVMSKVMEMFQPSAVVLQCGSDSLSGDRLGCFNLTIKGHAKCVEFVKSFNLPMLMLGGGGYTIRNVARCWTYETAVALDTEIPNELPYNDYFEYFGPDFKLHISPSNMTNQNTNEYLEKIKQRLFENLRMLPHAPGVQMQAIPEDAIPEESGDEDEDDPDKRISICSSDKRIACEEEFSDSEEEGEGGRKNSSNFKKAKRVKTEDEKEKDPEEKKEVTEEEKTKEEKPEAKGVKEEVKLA", "experiment": "Binding affinity to HDAC1 in human MDA-MB-231 cells assessed as increase in thermal stability at 10 uM measured at 6 hrs by CETSA", "assay_type": "cell-based"}, "[2]": {"target": "T1, Histone deacetylase 1", "experiment": "Inhibition of HDAC1 (unknown origin)"}, "[3]": {"system": "MDA-MB-231", "experiment": "Inhibition of cell migration in human MDA-MB-231 cells assessed as decrease in MMP-2 expression at 5 to 20 uM after 48 hrs by Western blot analysis", "assay_type": "functional, cell-based", "conditions": "dose 5-20 µM"}, "[4]": {"system": "MDA-MB-231", "experiment": "Inhibition of cell migration in human MDA-MB-231 cells assessed as increase in E-cadherin expression at 5 to 20 uM after 48 hrs by Western blot analysis", "assay_type": "functional, cell-based", "conditions": "dose 5-20 µM"}, "[5]": {"system": "MDA-MB-231", "experiment": "Induction of apoptosis in human MDA-MB-231 cells assessed as live cells at 20 uM by annexin V/propidium iodide staining-based flow cytometry analysis (reference value: 96.7 %)", "assay_type": "functional"}, "[6]": {"system": "MDA-MB-231", "experiment": "Induction of apoptosis in human MDA-MB-231 cells assessed as necrotic cells at 5 uM by annexin V/propidium iodide staining-based flow cytometry analysis (reference value: 0.099 %)", "assay_type": "functional"}, "[7]": {"target": "T2, Serine/threonine-protein kinase mTOR (Homo sapiens, UniProt P42345)", "experiment": "Inhibition of mTOR (unknown origin) at 0.5 uM relative to control"}, "[8]": {"system": "MDA-MB-231", "experiment": "Induction of apoptosis in human MDA-MB-231 cells by annexin V/propidium iodide staining-based flow cytometry analysis", "assay_type": "functional, cell-based", "conditions": "dose 5-20 µM"}, "[9]": {"experiment": "Solubility of the compound", "assay_type": "physicochemical"}, "[10]": {"target": "T3, Histone deacetylase 3 (Homo sapiens, UniProt O15379)", "T3 sequence (O15379 whole entry)": "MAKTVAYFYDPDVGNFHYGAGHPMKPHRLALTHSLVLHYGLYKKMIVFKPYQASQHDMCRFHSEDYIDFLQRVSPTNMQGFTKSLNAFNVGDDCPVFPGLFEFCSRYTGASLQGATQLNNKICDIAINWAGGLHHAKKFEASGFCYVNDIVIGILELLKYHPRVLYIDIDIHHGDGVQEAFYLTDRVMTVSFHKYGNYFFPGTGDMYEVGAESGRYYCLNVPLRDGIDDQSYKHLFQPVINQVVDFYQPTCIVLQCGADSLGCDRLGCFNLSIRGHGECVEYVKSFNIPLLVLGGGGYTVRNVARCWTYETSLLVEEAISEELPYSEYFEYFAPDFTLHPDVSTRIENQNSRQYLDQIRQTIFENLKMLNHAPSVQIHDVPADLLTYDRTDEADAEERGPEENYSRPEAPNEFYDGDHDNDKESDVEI", "experiment": "Binding affinity to HDAC3 in human MDA-MB-231 cells assessed as increase in thermal stability at 10 uM measured at 6 hrs by CETSA", "assay_type": "cell-based"}, "[11]": {"system": "MDA-MB-231", "experiment": "Induction of apoptosis in human MDA-MB-231 cells assessed as early apoptotic cells at 5 uM by annexin V/propidium iodide staining-based flow cytometry analysis (reference value: 0.69 %)", "assay_type": "functional"}, "[12]": {"system": "MDA-MB-231", "experiment": "Antiproliferative activity against human MDA-MB-231 cells measured after 48 hrs", "assay_type": "functional, cell-based", "conditions": "MDA-MB-231, 48 h"}, "[13]": {"system": "MDA-MB-231", "experiment": "Inhibition of cell migration in human MDA-MB-231 cells after 48 hrs by transwell assay", "assay_type": "functional, cell-based", "conditions": "dose 5-20 µM"}, "[14]": {"system": "MDA-MB-231", "experiment": "Inhibition of cell migration in human MDA-MB-231 cells after 48 hrs by wound healing assay", "assay_type": "functional, cell-based", "conditions": "dose 5-20 µM"}, "[15]": {"target": "T4, Protein deacetylase HDAC6 (Homo sapiens, UniProt Q9UBN7)", "T4 sequence (Q9UBN7 whole entry)": "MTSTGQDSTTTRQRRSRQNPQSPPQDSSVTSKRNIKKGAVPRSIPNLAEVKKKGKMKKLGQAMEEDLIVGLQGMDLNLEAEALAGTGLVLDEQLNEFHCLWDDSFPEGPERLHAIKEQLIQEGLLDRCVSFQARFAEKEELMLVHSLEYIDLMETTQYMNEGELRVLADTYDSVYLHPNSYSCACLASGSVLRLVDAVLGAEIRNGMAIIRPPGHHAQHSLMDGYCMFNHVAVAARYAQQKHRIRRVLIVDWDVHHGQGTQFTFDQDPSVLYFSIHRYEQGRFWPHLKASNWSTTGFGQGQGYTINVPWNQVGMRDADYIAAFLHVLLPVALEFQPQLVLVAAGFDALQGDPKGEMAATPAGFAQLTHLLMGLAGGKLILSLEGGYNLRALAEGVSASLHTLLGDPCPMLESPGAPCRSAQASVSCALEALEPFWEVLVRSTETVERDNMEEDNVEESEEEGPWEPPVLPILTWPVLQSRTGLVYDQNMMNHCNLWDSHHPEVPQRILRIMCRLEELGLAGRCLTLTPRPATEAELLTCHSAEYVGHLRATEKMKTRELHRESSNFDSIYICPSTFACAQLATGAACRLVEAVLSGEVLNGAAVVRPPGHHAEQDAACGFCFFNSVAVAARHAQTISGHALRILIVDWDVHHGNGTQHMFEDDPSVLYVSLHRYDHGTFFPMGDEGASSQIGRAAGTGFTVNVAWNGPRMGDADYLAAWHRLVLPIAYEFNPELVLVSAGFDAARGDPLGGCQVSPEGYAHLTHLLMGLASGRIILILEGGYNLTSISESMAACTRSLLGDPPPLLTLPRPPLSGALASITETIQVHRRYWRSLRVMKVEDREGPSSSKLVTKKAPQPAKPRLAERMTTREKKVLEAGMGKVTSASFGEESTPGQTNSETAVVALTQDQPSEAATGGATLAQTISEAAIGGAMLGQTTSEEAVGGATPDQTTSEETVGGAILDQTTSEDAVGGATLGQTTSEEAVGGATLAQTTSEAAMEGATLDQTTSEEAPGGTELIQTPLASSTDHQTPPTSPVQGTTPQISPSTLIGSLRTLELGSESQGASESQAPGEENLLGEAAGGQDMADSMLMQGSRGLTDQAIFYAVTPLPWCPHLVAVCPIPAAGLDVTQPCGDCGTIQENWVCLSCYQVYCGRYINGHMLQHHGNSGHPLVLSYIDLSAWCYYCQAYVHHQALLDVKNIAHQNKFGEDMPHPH", "experiment": "Inhibition of HDAC6 (unknown origin)"}, "[16]": {"target": "T5, Protein deacetylase HDAC6 (Homo sapiens) (UniProt Q9UBN7)", "T5 sequence (whole entry)": "T4 sequence (Q9UBN7 whole entry)", "experiment": "Inhibition of HDAC6 in human MDA-MB-231 cells assessed as increase in acetylated lysine at 5 to 20 uM by Western blot analysis", "assay_type": "cell-based", "conditions": "dose 5-20 µM"}, "[17]": {"target": "T2, Serine/threonine-protein kinase mTOR", "experiment": "Inhibition of mTOR in human MDA-MB-231 cells assessed as decrease in p70s6k phosphorylation at […] residue at 5 to 20 uM by Western blot analysis", "assay_type": "cell-based", "conditions": "dose 5-20 µM"}, "[18]": {"system": "MCF-10A", "experiment": "Cytotoxicity against human MCF-10A cells assessed as increase in cell viability", "assay_type": "cell-based"}, "[19]": {"target": "T3, Histone deacetylase 3", "experiment": "Inhibition of HDAC3 (unknown origin)"}, "[20]": {"system": "MDA-MB-231", "experiment": "Induction of apoptosis in human MDA-MB-231 cells assessed as early apoptotic cells at 20 uM by annexin V/propidium iodide staining-based flow cytometry analysis (reference value: 0.69 %)", "assay_type": "functional"}, "[21]": {"system": "MDA-MB-436", "experiment": "Antiproliferative activity against human MDA-MB-436 cells measured after 48 hrs", "assay_type": "functional, cell-based", "conditions": "MDA-MB-436, 48 h"}, "[22]": {"system": "MDA-MB-231", "experiment": "Induction of apoptosis in human MDA-MB-231 cells assessed as increase in caspase 3 cleavage at 5 to 20 uM by Western blot analysis", "assay_type": "functional, cell-based", "conditions": "dose 5-20 µM"}}, "note": "pIC50: −log10 of the molar value. The source made the active and inactive calls. No cut-off for these calls is given here.", "data": [{"compound": "CN1CCN(c2nc(-c3ccc(C(=O)NO)cc3)nc3cc(Cl)ccc23)CC1", "values": [{"measurement": "Activity", "setting": "[1]", "value": "inactive"}, {"measurement": "pIC50", "setting": "[2]", "value": 6.44}, {"measurement": "inhibition", "setting": "[3]", "value": "Active"}, {"measurement": "inhibition", "setting": "[4]", "value": "Active"}, {"measurement": "Activity", "setting": "[5]", "value": 53.9, "unit": "%"}, {"measurement": "Activity", "setting": "[6]", "value": 0.64, "unit": "%"}, {"measurement": "inhibition", "setting": "[7]", "value": 91.4, "unit": "%"}, {"measurement": "Activity", "setting": "[8]", "value": "Dose-Dependent Effect"}, {"measurement": "solubility", "setting": "[9]", "value": "Insoluble"}, {"measurement": "Activity", "setting": "[10]", "value": "inactive"}, {"measurement": "Activity", "setting": "[11]", "value": 4.84, "unit": "%"}, {"measurement": "pIC50", "setting": "[12]", "value": 5.08}, {"measurement": "inhibition", "setting": "[13]", "value": "Active"}, {"measurement": "inhibition", "setting": "[14]", "value": "Active"}, {"measurement": "pIC50", "setting": "[15]", "value": 7.25}, {"measurement": "inhibition", "setting": "[16]", "value": "Active"}, {"measurement": "inhibition", "setting": "[17]", "value": "Active"}, {"measurement": "Activity", "setting": "[18]", "value": "Non-Toxic"}, {"measurement": "pIC50", "setting": "[19]", "value": 6.38}, {"measurement": "Activity", "setting": "[20]", "value": 11.3, "unit": "%"}, {"measurement": "pIC50", "setting": "[21]", "value": 4.97}, {"measurement": "Activity", "setting": "[22]", "value": "Active"}]}]}
